{"source": "patent US9200082B2", "about": "“Methods and compositions involving fibrillizing polypeptides for nanofibers” (The University of Chicago, priority 2013, dated 2015)", "key": {"C57BL/6 mice": {"test_system": "C57BL/6 mice", "assay": "Immunization, anti-GFP Ig isotyping ELISA", "assay_type": "in vivo", "conditions": "after primary and booster immunizations, serum week 7", "experimental": "Q11 microgels bearing βTail-GFP or βTail-cut were prepared as described above, except the materials were incubated at 4 deg C., rather than room temperature. GFP content in the microgels was analyzed fluorimetrically as described above, and the concentration of GFP in the microgels was used as the basis for βTail-GFP dose in the PBS group. Similarly, cutinase content in the microgels was analyzed with the μABCA assay kit (Pierce), according to the manufacturer's instructions, and βTail-cut dose in the microgels was used as the basis for βTail-cut dose in PBS group. Endotoxin content of all vaccines was analyzed with the Limulus Amoebocyte Lysate assay kit (Lonza) according to the manufacturer's instructions immediately before immunization, and all materials were below the upper limit of 1 EU/mL. Female C57BL/6 mice (6-8 weeks old, Taconic Farms, Ind.) were each given two 50 μL subcutaneous injections near the shoulder blades for each primary and booster immunization, similar to previously reported methods (Hudalla 2013). […]\nFor all isotyping ELISAs, following overnight coating with 1 μg/mL βTmutant-GFP in PBS or PBS, all plates were washed 3 times with 0.5% Tween-20 in PBS. […] Absorbance was then measured at 450 nm with a SpectraMax M5 plate reader."}, "Q11 microgels": {"test_system": "Q11 microgels", "assay": "Q11 microgel fluorescence microscopy", "experimental": "Lyophilized Q11 was dissolved in deionized water at a final concentration of 10 mM by vortexing for 5 min. Aqueous Q11 solutions were diluted 10-fold with 1×PBS containing GFP (Vector Labs cat# MB-0752), βTmutant-GFP, or one or more βTail fusion proteins at a total protein concentration between 0.25-1.5 μM, or tryptophan-terminated βTail (W-βTail) at a concentration between 10-100 μM. These solutions were then incubated under static conditions for nanofiber assembly, or on a LabNet Rocker 35 rocker table (speed setting 4) (New Jersey) to induce microgel formation.\nQ11 microgel fluorescence was analyzed using a Zeiss Axioscope inverted epifluorescent microscope. Dapi filters were used to visualize βTail-GFPuv; FITC filters were used to visualize βTail-eGFP; and TRITC filters were used to visualize βTail-dsRED. Fluorescence emission of any protein with the inappropriate filter (e.g. βTail-GFPuv with FITC) was negligible (FIG. 5). Due to differences in the quantum efficiency of each protein, exposure time was adjusted until the grayscale image intensity of microgels containing 0.33 μM βTail-GFP, βTail-eGFP, or βTail-dsRED alone was similar (e.g. 0.75 sec for βTail-GFP, 1.5 sec for βTail-eGFP, and 2.5 sec for βTail-dsRED). […]"}}, "data": [{"substance": "βTail-GFP: recombinant fusion of βTail, Gly-Ser linker, GFPuv and His6 expressed in E. coli; SEQ ID NO. 65", "values": [{"measurement": "serum Ig isotype profile", "setting": "C57BL/6 mice", "value": "a more balanced IgM/IgG1 isotype profile"}, {"measurement": "fluorescence (activity) after integration into Q11 nanofibers", "setting": "Q11 microgels", "value": "fluorescence was not perturbed when integrated into Q11 nanofibers"}]}]}
